Like-named read-outs stand apart in the source and are kept apart here.
Columns and labels:
[1] = tested on: NH of L. (L.) major; design: method as in PMID 10409664; settings: unit inferred; cited from earlier work
[2] = tested on: Nucleoside hydrolase NH36 of L. (L.) donovani; format: biochemical, Leishmania (L.) donovani; settings: substrate of NH36; for k cat /K m: catalytic efficiency; for K m / k cat: 25°C, 50 mM Hepes pH 7.4
Experimental: (§1) BL21DE3 E.coli were transformed with the synthetic plasmid pET 28b encoding the gene of NH36 of Leishmania (L.) donovani (EMBL, Genbank and DDJB data bases, access number AY007193) with a His6tag at the C-terminal. Expression was induced with 0.5 mM IPTG and overnight incubation at 20°C. Purification of NH36 was performed on a column of Ni-NTA Superflow resin (Qiagen, USA) eluted by a stepwise imidazole gradient and monitored by SDS-polyacrylamide gel electrophoresis and protein assay. The extinction coefficient of NH36 is 21.437 mM^-1 cm^-1 at 280 nm, as calculated with the ProtParam program from ExPASy, and was used to estimate protein concentration (http://ca.expasy.org/seqanalref/). The yield of NH36 after purification was 11.87 mg per Liter of bacterial growth culture. Non-specific His-proteins with weak interactions were eluted with 50–100 mM imidazole (S1 Fig). The purified NH36 started to elute with 150 mM imidazole. We used 250 mM of imidazol in elution buffer for purification of NH36.
Steady-state kinetic rates for NH36 were determined on the substrates inosine, guanosine, adenosine, uridine and cytidine. Hypoxanthine and adenine formation were coupled to xanthine oxidase (12.9 mM^-1 cm^-1 at 293 nm and 15.2 mM^-1 cm^-1 at 305 nm, respectively), and the others were followed by direct uv absorbance changes resulting from cleavage of the N-ribosidic bond. Reaction mixtures contained 50 mM Hepes (pH 7.4), 100 mM NaCl and 5 mM of DTT. One unit, and 0.1 unit of xanthine oxidase (XOD) were used as the coupling enzyme to the adenosine and inosine assays, respectively. Spectral changes for hydrolysis of guanosine, uridine and cytidine were 5.4 mM^-1 cm^-1 at 257 nm,1.8 mM^-1 cm^-1 at 280 nm and 1.8 mM^-1 cm^-1 at 288 nm, respectively. Variable concentrations of substrate and appropriate amounts of purified NH36 were added in all assays. The hydrolysis of nucleosides to bases and ribose was followed by continuous recording of optical absorbance after addition of the enzyme, in a CARY 300 UV-visible spectrophotometer. Control rates with no enzyme addition were subtracted from initial rates. Reactions with substrates were conducted at 25°C using 1 cm path length cuvettes containing 1 mL reaction volumes. Kinetic parameters of NH36 were obtained by fitting initial rates to the Michaelis−Menten equation using GraFit 5 (Erithacus Software).

[3] = tested on: intracellular amastigotes of L. (L.) infantum chagasi; settings: ref 44; read-out: IC50 against intracellular amastigotes; cited from earlier work
[4] = tested on: L. (L.) amazonensis promastigotes; assay: In vitro growth of promastigotes in FBS supplemented Schneider's insect medium; format: cell-based, Leishmania (L.) amazonensis; settings: Leishmania amazonensis; for inhibition at 500 µM: read-out: percent inhibition on L. (L.) amazonensis replication; for IC50: read-out: IC50 (CI 95%) on L. (L.) amazonensis promastigotes in vitro growth
Description: The strain of Leishmania (L.) infantum chagasi MHOM/BR/1974/PP75 was obtained from the Leishmania Type Culture Collection (Fundacão Oswaldo Cruz, Rio de Janeiro, RJ, Brazil) and the strain of Leishmania (L.) amazonensis (MHOM/BR/1975/Josefa) was kindly given by Professor Rosâ[…] from Universidade Federal do Rio de Janeiro. Promastigotes were maintained by weekly transfers in screw-capped glass tubes containing Schneider's insect medium (Sigma Aldrich, MO, USA), pH 7.0, supplemented with 10% Fetal Bovine Serum (FBS) at 26°C. Stock solutions (20 mM) of immucillins IA […] prepared using Milli-Q purified water. Log phase promastigotes of L. (L.) infantum chagasi and L. […] Promastigotes were recorded in a Neubauer chamber after 24, 48, 72 and 96 hours of incubation at 26°C. […] We also assayed the possibility of reversing the inhibitory effect of IA in RPMI medium by the addition of adenosine to the culture medium. The concentration of adenosine in Schneider s insect serum supplemented medium was assessed by HPLC using a C-18 reverse-phase column as described.

[5] = target: T1, Nucleoside hydrolase NH36 (Leishmania donovani, UniProt Q8WQX2); assay: Ki determination: inhibition of NH36 activity by immucillins; format: biochemical, Leishmania (L.) donovani; settings: 10 mM inosine as substrate, 0.5 nM NH36, pH 7.4, room temperature
T1 sequence (Q8WQX2 1-314): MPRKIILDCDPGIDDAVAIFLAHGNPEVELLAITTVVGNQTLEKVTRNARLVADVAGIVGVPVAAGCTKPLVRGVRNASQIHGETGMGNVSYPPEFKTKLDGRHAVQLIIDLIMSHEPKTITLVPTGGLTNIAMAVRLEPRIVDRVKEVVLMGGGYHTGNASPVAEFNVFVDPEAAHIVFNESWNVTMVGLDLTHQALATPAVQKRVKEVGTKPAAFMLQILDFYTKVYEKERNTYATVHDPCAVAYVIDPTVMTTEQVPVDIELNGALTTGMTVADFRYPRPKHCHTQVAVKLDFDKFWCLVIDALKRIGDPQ
Experimental: as §1
The reaction mixtures contained 10 mM inosine as substrate, 50 mM Hepes (pH 7.4), 100 mM KCl, 5 mM DTT and 1 unit XOD. The hydrolysis of inosine to hypoxanthine and ribose was followed by continuous reading of optical absorbance at 293 nm, using variable concentrations of inhibitors in a CARY 300UV-visible spectrophotometer. Controls without enzyme and without inhibitors were included in all inhibition assays. The inhibition constant for each immucillin was obtained, using GraFit 5 (Erithacus Software), by fitting initial rates with variable inhibitor concentrations to the equation (vi/v0 = [S] / Km + [S] + Km[I] / Ki), where v i is the initial rate in the presence of the inhibitor, v 0 is the initial rate in the absence of the inhibitor, K m is the Michaelis constant for inosine, [S] and [I] are inosine and inhibitor concentrations, respectively, and Ki is the inhibition constant.

[6] = tested on: L. (L.) infantum chagasi promastigotes; assay: In vitro growth of promastigotes in FBS supplemented Schneider's insect medium; format: cell-based, Leishmania (L.) infantum chagasi; settings: Leishmania infantum; for inhibition at 500 µM: after 96 h of culture, read-out: percent inhibition on L. (L.) infantum chagasi promastigote growth
Description: The strain of Leishmania (L.) infantum chagasi MHOM/BR/1974/PP75 was obtained from the Leishmania Type Culture Collection (Fundacão Oswaldo Cruz, Rio de Janeiro, RJ, Brazil) and the strain of Leishmania (L.) amazonensis (MHOM/BR/1975/Josefa) was kindly given by Professor Rosâ[…] from Universidade Federal do Rio de Janeiro. Promastigotes were maintained by weekly transfers in screw-capped glass tubes containing Schneider's insect medium (Sigma Aldrich, MO, USA), pH 7.0, supplemented with 10% Fetal Bovine Serum (FBS) at 26°C. […] Log phase promastigotes of L. (L.) infantum chagasi and L. […] Promastigotes were recorded in a Neubauer chamber after 24, 48, 72 and 96 hours of incubation at 26°C. […] The concentration of adenosine in Schneider s insect serum supplemented medium was assessed by HPLC using a C-18 reverse-phase column as described.

[7] = tested on: L. (L.) infantum chagasi promastigotes; assay: Transmission electron microscopy of treated promastigotes; format: cell-based, Leishmania (L.) infantum chagasi; settings: 10 μM, 72 h
Description: The cells were washed with Milli Q water, dehydrated in increasing concentration of acetone and embedded in Epon (1: 1) (PolyBed 812). The ultrathin sections were obtained, contrasted with 5% uranyl acetate and lead citrate and observed under a Joel 1200 electron microscope.

[8] = tested on: intracellular amastigotes of L. (L.) infantum chagasi; assay: Replication of intracellular amastigotes in infected peritoneal macrophages (phagocytic index); format: cell-based, Leishmania (L.) infantum chagasi
Experimental: […] […] The amastigote growth was assessed 24 h after the last drug addition, on 200 cells in Giemsa stained coverslips and expressed as phagocytic index = percent of infected macrophages x average number of intracellular amastigotes. […] All experiments with mice were reviewed and approved by the Animal Care and Use Committee of the Instituto de Biofísica Carlos Chagas Fo.-UFRJ (CAUAP-CONCEA, Brazil, IMPPG-016) and were performed according to the guidelines of the National Institutes of Health, USA. We made all efforts in order to minimize animal suffering.

[9] = in vitro; settings: female, BALB/c, mouse
Experimental: Alternatively, the immucillins were added at 0, 24 and 48 h and viability assessed after 72h. […] The amastigote growth was assessed 24 h after the last drug addition, on 200 cells in Giemsa stained coverslips and expressed as phagocytic index = percent of infected macrophages x average number of intracellular amastigotes. […] All experiments with mice were reviewed and approved by the Animal Care and Use Committee of the Instituto de Biofísica Carlos Chagas Fo.-UFRJ (CAUAP-CONCEA, Brazil, IMPPG-016) and were performed according to the guidelines of the National Institutes of Health, USA. We made all efforts in order to minimize animal suffering.

[10] = single addition at 0 h, evaluated after 48 hours, 26°C, read-out: IC50 (CI 95%) on L. (L.) infantum chagasi promastigotes in vitro growth
[11] = single addition at 0 h, evaluated after 48 hours, 26°C

| Compound | IC50 [3] | inhibition at 500 µM ([4]; 500 μM, after 96 h of culture) | Ki [5] | IC50 [6, 10] | inhibition at 500 µM [6] | IC50 [4, 11] | further results |
| --- | --- | --- | --- | --- | --- | --- | --- |
| Nc1ncnc2c1ncn2[C@@H]1O[C@H](CO)[C@@H](O)[C@H]1O [Adenosine] |  |  |  |  |  |  | k cat [1]: 0.57 s⁻¹; k cat /K m [2]: 53000 M⁻¹ s⁻¹; K m [2]: 70 ± 30 µM; k cat [2]: 3.7 ± 0.1 s ^-1 |
| C[C@@H]1[C@H](O)[C@@H](C)/C=C/C=C/C=C/C=C/C=C/C=C/C=C/[C@H](O[C@@H]2O[C@H](C)[C@@H](O)[C@H](N)[C@@H]2O)C[C@@H]2O[C@](O)(C[C@@H](O)C[C@@H](O)[C@H](O)CC[C@@H](O)C[C@@H](O)CC(=O)O[C@H]1C)C[C@H](O)[C@H]2C(=O)O [Amphotericin] | 0.04 µM |  |  |  |  |  |  |
| CC[C@H]1OC(=O)[C@H](C)[C@@H](O[C@H]2C[C@@](C)(OC)[C@@H](O)[C@H](C)O2)[C@H](C)[C@@H](O[C@@H]2O[C@H](C)C[C@H](N(C)C)[C@H]2O)[C@](C)(O)C[C@@H](C)CN(C)[C@H](C)[C@@H](O)[C@]1(C)O [Azitromycin] | 19.9 µM |  |  |  |  |  |  |
| Nc1ccn([C@@H]2O[C@H](CO)[C@@H](O)[C@H]2O)c(=O)n1 [Cytidine] |  |  |  |  |  |  | k cat [1]: 0.36 s⁻¹; k cat /K m [2]: 9300 M⁻¹ s⁻¹; K m [2]: 1,403 ± 282 μM; k cat [2]: 13.1 ± 1.1 s ^-1 |
| Nc1ncnc2c(CN3C[C@H](CO)[C@@H](O)C3)c[nH]c12 [DIA] |  | 16% | > 5 µM | 109 µM | 69% |  |  |
| Nc1nc2c(CN3C[C@H](CO)[C@@H](O)C3)c[nH]c2c(=O)[nH]1 [DIG] |  | 67% | > 5 µM | 23.7 µM | 68% | 40 µM |  |
| O=c1[nH]cnc2c(CN3C[C@H](CO)[C@@H](O)C3)c[nH]c12 [DIH] |  | 89% | > 5 µM | 1.8 µM | 89% | 3.4 µM |  |
| Nc1nc2c(ncn2[C@@H]2O[C@H](CO)[C@@H](O)[C@H]2O)c(=O)[nH]1 [Guanosine] |  |  |  |  |  |  | k cat /K m [2]: 1200 M⁻¹ s⁻¹; K m [2]: 380 ± 153 µM; k cat [2]: 0.47 ± 0.1 s ^-1 |
| O=c1[nH]cnc2c([C@@H]3N[C@H](CO)[C@@H](O)[C@H]3O)c[nH]c12 [IH] |  |  | 0.019 µM |  |  |  | inhibition at 500 µM ([4]; 96 h): 71%; IC50 [4]: 49.7 µM; IC50 ([6]; read-out: IC50 (CI 95%) on L. (L.) infantum chagasi promastigotes in vitro growth, single addition at 0 h, evaluated after 48 hours, 26°C): 30.6 µM; IC50 ([6]; read-out: IC50 on promastigote growth, daily addition, drugs added at 0, 24 and 48 h, after 48h): 6.7 µM; IC50 ([6]; read-out: IC50 on promastigote growth, daily addition, drugs added at 0, 24 and 48 h, at 72 and 96 h): < 0.05 µM; effect on cellular ultrastructure of promastigotes [7]: alterations and swelling of kinetoplasts; reduction in the number of intracellular amastigotes ([8]; 10 μM added daily at 0, 24 and 48 h): 95%; EC50 ([8]; Leishmania infantum, Peritoneal macrophage, read-out: EC50 (CI 95%)): 3.69 µM; decrease of intracellular amastigote parasite load ([8]; low micromolar concentrations, single to daily protocol): 74–95%; reduction in the number of intracellular amastigotes ([8]; single 10 μM dose at 0 h, compared to untreated controls): 70%; CC50 at 48 h [9]: 950 µM |
| CCCCCCCCCCCCCCCCOP(=O)([O-])OCC[N+](C)(C)C [Miltefosine] | 4.4 µM |  |  |  |  |  |  |
| NC[C@@H]1O[C@H](O[C@H]2[C@@H](O)[C@H](O[C@@H]3[C@@H](O)[C@H](N)C[C@H](N)[C@H]3O[C@H]3O[C@H](CO)[C@@H](O)[C@H](O)[C@H]3N)O[C@@H]2CO)[C@H](N)[C@@H](O)[C@@H]1O [Paramomycin] | 337 µM |  |  |  |  |  |  |
| Nc1ncnc2c(CNC(CO)CO)c[nH]c12 [SMIA] |  | 71% | > 5 µM | 349 µM | 71% | 157 µM |  |
| Nc1nc2c(CNC(CO)CO)c[nH]c2c(=O)[nH]1 [SMIG] |  |  | 1.8 µM | 25.8 µM | 70% | 29.4 µM |  |
